Experimental findings from publication PMC11714165, “Bone‐Targeted Fluoropeptide Nanoparticle Inhibits NF‐κB Signaling to Treat Osteosarcoma and Tumor‐Induced Bone Destruction” (Advanced Science, 2024) are described below.

Residues, ends and D or L forms follow the SMILES beside them. *: point of attachment. X1 = O=C(OCCC(F)(F)C(F)(F)C(F)(F)C(F)(F)C(F)(F)C(F)(F)F)c1ccc(C=NN*)cc1; FITC = O=C1OC2(c3ccc(O)cc3Oc3cc(O)ccc32)c2ccc(NC(=S)*)cc21; NHNH2 = NN*

Series [1] has as its system 143B cells. The experiment in a line: LDH release assay. In kind it is cell-based, human. The settings on record: varying doses, 24 h, n = 3. The procedure:
For the LDH assay, different concentrations of peptides were added to 143B cells as described above. The LDH released from the cells was measured by the manufacturer's protocol (Beyotime) after 24 h of incubation. Briefly, a new plate was used to transfer the solution of each well and treat it with lysis buffer at 37 °C for another 1 h. Each well was then incubated with the LDH working solution for 30 min. LDH activity was measured at 490 nm. Negative control cells were non‐treated, while positive control cells were treated with lysis buffer for 1 h directly. All samples were tested in triplicate.
A general note: Release of lactate dehydrogenase indicates damage to the cell membrane.

For the next series, the system named is mouse red blood cell. As to the kind of experiment: Hemolysis of red blood cell suspension. The format is cell-based. The settings on record: 2% mouse red blood cell suspension, different concentrations, 37 °C, 2 h, 1% Triton X‐100 positive control, n = 3. The method, then:
Figure 3 Bioactivity of fluorous NBD nanoparticles. A) Schematic illustration of the NBD peptide inhibiting the NF‐κB pathway. B) WB analysis of p65, IκB, and phosphorylated p65 and IκB, respectively in BMM cells treated with RANKL for 2 h and then further incubated with different peptides (25 µM) for 24 h. C) Representative images of TRAP staining in BMM cells treated with PBS, NBD, NBD‐T, and NBD‐F respectively for osteoclast differentiation. The concentration of peptides was 25 µM. D) Quantification of the number of TRAP‐positive multinucleated osteoclasts (≥ 3 nuclei) based on the images in C). n = 5. Cell viability E) and LDH release F) of 143B cells exposed for 24 h to varying doses of NBD, NBD‐T, and NBD‐F, respectively. n = 3. G) Apoptosis analysis of 143B cells stained with FITC‐annexin V and propidium iodide (PI) for 24 h following treatment with NBD, NBD‐T, and NBD‐F, respectively. H) Images of 2% mouse red blood cell suspension incubated with different concentrations of NBD‐F or NBD‐T at 37 °C for 2 h. Triton X‐100 at 1% (Tx‐100) was used as a positive control. PBS was used as a negative control. […] Relative hemolysis was tested as [(As‐An)/(Ap‐An)] × 100%, where As, Ap, and An are the UV absorbances of the sample, positive control, and negative control, respectively (n = 3). *p < 0.05, **p < 0.01, ***p < 0.001, and ****p < 0.0001. […]

Series [2] relates to 143B cells. As to the kind of experiment: Intracellular peptide delivery, confocal microscopy and flow cytometry. In kind it is cell-based, human. The method, then: 10 µM of ^FINBD, ^FINBD‐F, or ^FINBD‐T was added to confocal dishes (diameter: 35 mm) when the 143B cells reached 90% confluence. After a 6 h incubation, the cells were rinsed with trypan blue and PBS, followed by imaging using a LSCM.
For flow cytometry analysis, the peptide ^FINBD, ^FINBD‐F, or ^FINBD‐T was added to 143B cells, following the aforementioned protocols. Subsequently, cells were digested using 0.25% trypsin, resuspended in PBS, and subjected to quantitative analysis of delivery efficiency using flow cytometry (CytoFLEX, BECKMAN, USA).
A control group consisted of ^FINBD‐F treated 143B cells in the absence of inhibitors (37 °C). Finally, LSCM was employed to observe internalized ^FINBD‐F in the treated cells.
On the technique in general: A flow cytometer gives signals particle by particle.

In the case of `CC(C)C[C@H](NC(=O)[C@H](C)NC(=O)[C@@H](N)[C@@H](C)O)C(=O)N[C@@H](CC(=O)O)C(=O)N[C@@H](Cc1c[nH]c2ccccc12)C(=O)N[C@@H](CO)C(=O)N[C@@H](Cc1c[nH]c2ccccc12)C(=O)N[C@@H](CC(C)C)C(=O)N[C@@H](CCC(N)=O)C(=O)N[C@H](C(=O)N[C@@H](CCC(=O)O)C(=O)NN=Cc1ccc(C(=O)OCCC(F)(F)C(F)(F)C(F)(F)C(F)(F)C(F)(F)C(F)(F)F)cc1)[C@@H](C)O` [NBD-F] (H-TALDWSWLQTE-X1), the LDH release result with 143B cells [1] is recorded as “concentration‐dependent”. Also, the Relative hemolysis result in the series on mouse red blood cell is given as “relatively low hemolytic rate”.

For the molecule “{FITC}-TALDWSWLQTE-NHNH2 [^FINBD-F, FITC‐labeled NBD peptide after fluorous tag modification]”, in the series on 143B cells [2] (10 µM NBD, 6 h, confocal microscopy and flow cytometry, n = 3, compared with ^FINBD and ^FINBD‐T), the “Efficiency of intracellular delivery (fluorescence intensity)” value is on record as “noticeably improved the efficiency of intracellular delivery”. Moreover, in the series on 143B cells [2] (1 h pretreatment with EIPA 100 µM, MβCD 10 mM, GEN 700 µM, CPZ 20 µM or 4 °C, then 6 h peptide), the Internalization mechanism entry is reported as “mediated through multiple endocytosis pathways”. The “Cellular uptake and endosomal escape” value with 143B cells [2] (confocal, fluorescence dispersed throughout the cells after an hour of incubation) was “rapid and efficient”.
